Test results as given in patent US20210115104A1, “AMYLIN ANALOGUES” (Zealand Pharma A/S, priority 2015, published 2021).
*1 amine or outer side, *2 acyl side, *3 side chain or, on linkers, in order; H or OH if unused. Where a SMILES comes first, the peptide text is derived from it. Bridges are numbered along the chain shown (N, C = ends). [ ]: non-standard residue; d: D form. The star is where a group is joined. C20 diacid = O=C(O)CCCCCCCCCCCCCCCCCCC(=O)*; γGlu = O=C(O)[C@H](CCC(=O)[*:2])N[*:1]; Hyp = O=C(O)[C@@H]1C[C@@H](O)CN1; NMeI = CC[C@H](C)[C@H](NC)C(=O)O; Sar = CNCC(=O)O

Experiments:
[1] = molecular target: T1, human amylin receptor 3 (hAMYR3), hCTR2 co-expressed with hRAMP3 (Homo sapiens, UniProt O60896+P30988); assay: hAMYR3 cAMP assay (AlphaScreen) in COS7 cells; format: cell-based; conditions: cAMP induction, COS7 cells expressing hAMYR3; Table 1; read-out: hAMYR3 EC50
T1 construct: expressed in transfected cells
T1 sequence (P30988 25-474): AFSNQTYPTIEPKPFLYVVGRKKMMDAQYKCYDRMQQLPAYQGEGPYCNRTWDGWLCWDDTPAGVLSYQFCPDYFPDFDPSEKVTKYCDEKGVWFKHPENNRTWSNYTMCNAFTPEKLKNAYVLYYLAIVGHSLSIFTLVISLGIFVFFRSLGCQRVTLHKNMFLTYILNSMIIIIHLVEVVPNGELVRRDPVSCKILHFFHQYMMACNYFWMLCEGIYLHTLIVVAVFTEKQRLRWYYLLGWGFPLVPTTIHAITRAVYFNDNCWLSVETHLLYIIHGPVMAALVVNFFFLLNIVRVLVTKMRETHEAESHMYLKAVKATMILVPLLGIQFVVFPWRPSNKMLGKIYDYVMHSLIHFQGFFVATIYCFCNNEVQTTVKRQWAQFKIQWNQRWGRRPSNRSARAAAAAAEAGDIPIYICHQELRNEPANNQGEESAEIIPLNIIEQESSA
T1 sequence (O60896 24-148 partner): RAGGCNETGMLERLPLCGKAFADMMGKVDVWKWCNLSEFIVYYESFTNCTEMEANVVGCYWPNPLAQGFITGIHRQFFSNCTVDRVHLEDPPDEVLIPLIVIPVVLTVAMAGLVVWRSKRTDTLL
Source text: The cell line COS7, originating from African Green Monkey kidney fibroblast cells, was used for establishment of the stable cell lines described below. The COS7 cellular background was used due to it being RAMP naïve, and as such it provides the best available system for testing of the monomeric hCTR and different heterodimeric amylin receptor subtypes functionally generated by introduction of the individual RAMPs.
A cell line expressing the human amylin receptor 3 (hAMYR3) was generated in the COS7 cellular background as stable clones. In brief, hCTR2 (GI:4502547) and hRAMP3 (GI:118572586) were amplified by PCR using primers encoding terminal restriction sites for subcloning. The 5′-end primers additionally encoded a near Kozak consensus sequence to ensure efficient translation. The fidelity of the DNA encoding the receptor was confirmed by DNA sequencing. The PCR products encoding the receptor were subcloned into a proprietary tri-cistronic mammalian expression vector with RAMP3, hCTR2 and neomycin (G418) resistance marker. The mammalian expression vector encoding the receptor was transfected into COS7 cells by a standard liposome transfection method. 48 hours post-transfection, cells were seeded for limited dilution cloning and selected with 1 mg/ml G418 in the culture medium. After 3 weeks, surviving colonies of hAMY3R-expressing cells were picked, propagated and tested in the amylin efficacy assay as described in Example 3 below. The functional generation of the amylin receptor phenotype was verified in the efficacy assay by a left-shifted efficacy response to amylin relative to monomeric calcitonin receptor, and one hAMYR3-expressing clone was chosen for compound profiling.
In vitro activity of test peptides at the hCTR2 and hAMYR3 receptors was assessed by measuring the induction of cAMP following stimulation of the receptor using the AlphaScreen® cAMP Assay kit from Perkin-Elmer.
Briefly, COS7 cells expressing hCTR2 (see Example 2, above) were seeded at 30-40,000 cells per well in 96-well microtiter plates coated with 0.01% poly-L-lysine, and grown for 1 day in culture in 100 μl growth medium [DMEM, 10% FCS, Penicillin (100 IU/ml), Streptomycin (100 μg/ml)]. On the day of analysis, growth medium was removed and the cells were washed once with 200 μl Tyrode buffer [Tyrode's Salts (9.6 g/I), 10 mM HEPES, pH 7.4]. Cells were incubated in 100 μl Tyrode buffer containing increasing concentrations of test peptides, 100 µM IBMX and 0.1% casein for 15 min at 37° C. The reaction was stopped by carefully decanting off the compound/buffer medium and replacing it with lysis/detection buffer (80 μl 0.1% w/v BSA, 5 mM HEPES, 0.3% v/v Tween-20 in deionized water). After incubation at room temperature for 10 min., the cAMP content of the resulting cell lysate was estimated according to the AlphaScreen® cAMP Assay manufacturer's instructions. EC50 values were estimated by computer-aided curve fitting using the 4-parameter logistic (4PL) non-linear model.

[2] = Assessment of physical stability (Thioflavin T fibrillation); format: physicochemical; design: key: FND = fibrillation not detected; FD = fibrillation detected; conditions: 1 mg/ml, 40° C., ThT; for Fibrillation pH 4.0 (Ac): 50 mM acetate buffer pH 4.0, 96 hours; for Fibrillation pH 7.0 (His): 50 mM histidine buffer pH 7.0, 96 hours; for Fibrillation pH 7.0 (Phos.): 50 mM phosphate buffer pH 7.0, 96 hours
How it was run: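 1 mg/ml peptide with 40 μM ThT in 50 mM phosphate pH 7.0, 50 mM histidine pH 7.0 or 50 mM acetate pH 4.0, in triplicate. Fluorescence read every 10 min after 300 s agitation over 96 h at 40 °C. Lag-time (h) is the intersection of linear fits to stable and growth phases.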

[3] = Assessment of chemical stability (RP-HPLC normalized purity); format: physicochemical; conditions: 7 days, 40° C., Table 1; for Normalized purity after 7 days, 40° C., pH 4: pH 4, 0.2 mg/ml; for Normalized purity after 7 days, 40° C., pH 6: pH 6, 0.2 mg/ml; for Normalized purity after 7 days, 40° C., pH 7.5: pH 7.5, 0.2 mg/ml; for Normalized purity after 7 days, 40° C., pH 9: pH 9, 0.2 mg/ml
How it was run: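 Peptides at 0.2 mg/ml in water adjusted to pH 4, 6, 7.5 or 9, incubated at 40° C for 7 days. Main-peak area-% by RP-HPLC (C8 ammonium formate or C18 TFA gradient, UV 220 nm), normalized to T=0 as 100.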

[4] = molecular target: T2, human calcitonin receptor (hCTR2) (Homo sapiens, UniProt P30988); assay: hCTR2 cAMP assay (AlphaScreen) in COS7 cells; format: cell-based; conditions: cAMP induction, COS7 cells expressing hCTR2; Table 1; read-out: hCTR2 EC50
T2 construct: expressed in transfected cells
T2 sequence (P30988 25-474): T1 sequence (P30988 25-474)
How it was run: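 Stable hCTR2 clone in RAMP-naïve COS7 cells stimulated 15 min at 37 °C with increasing peptide concentrations in Tyrode buffer pH 7.4 containing IBMX and 0.1% casein. cAMP in lysates measured by AlphaScreen; EC50 from 4-parameter logistic fit.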

Row | SMILES | EC50 [1] [nM] | Fibrillation pH 4.0 (Ac) [2] | Fibrillation pH 7.0 (His) [2] | Fibrillation pH 7.0 (Phos.) [2] | Normalized purity after 7 days, 40° C., pH 4 [3] | Normalized purity after 7 days, 40° C., pH 6 [3] | Normalized purity after 7 days, 40° C., pH 7.5 [3] | Normalized purity after 7 days, 40° C., pH 9 [3] | EC50 [4] [nM]
1 | CC[C@H](C)[C@@H](C(=O)N[C@@H](CC(C)C)C(=O)N[C@@H](CO)C(=O)N[C@@H](CO)C(=O)N[C@H](C(=O)N[C@@H](CC(=O)O)C(=O)N[C@H](C(=O)NCC(=O)N[C@@H](CO)C(=O)N[C@@H](CC(=O)O)C(=O)N[C@H](C(=O)N1CCC[C@H]1C(N)=O)[C@@H](C)O)C(C)C)[C@@H](C)O)N(C)C(=O)[C@H](C)NC(=O)CN(C)C(=O)[C@H](Cc1ccccc1)NC(=O)[C@H](CO)NC(=O)[C@H](CO)NC(=O)[C@H](CCCNC(=N)N)NC(=O)[C@@H](NC(=O)[C@H](CC(C)C)NC(=O)[C@H](Cc1ccccc1)NC(=O)[C@H](Cc1c[nH]cn1)NC(=O)[C@H](C)NC(=O)[C@H](CC(C)C)NC(=O)[C@H](CCCNC(=N)N)NC(=O)[C@H](CC(=O)O)NC(=O)[C@@H](NC(=O)[C@H](C)NC(=O)[C@@H]1CSSC[C@H](NC(=O)[C@H](CCCNC(=N)N)NC(=O)CC[C@H](NC(=O)CCCCCCCCCCCCCCCCCCC(=O)O)C(=O)O)C(=O)N2CCC[C@H]2C(=O)N[C@@H]([C@@H](C)O)C(=O)N[C@@H](C)C(=O)N[C@@H]([C@@H](C)O)C(=O)N1)[C@@H](C)O)C(C)C [Compound 23, [19CD]-isoGlu-R-C( )-PTAT-C( )-ATDRLAHFLVRSSF-Gly(Me)-A-Ile(Me)-LSSTDVGSDTP-NH2] ({C20 diacid-γGlu}-RCPTATCATDRLAHFLVRSSF[Sar]A[NMeI]LSSTDVGSDTP-NH2; disulfide 2-7) | 0.13 |  |  |  |  |  |  |  | 
2 | CC[C@H](C)[C@@H](C(=O)N[C@@H](CC(C)C)C(=O)N[C@@H](CO)C(=O)N[C@@H](CO)C(=O)N[C@H](C(=O)N[C@@H](CCC(=O)O)C(=O)N[C@H](C(=O)NCC(=O)N[C@@H](CO)C(=O)N[C@@H](CC(N)=O)C(=O)N[C@H](C(=O)N1C[C@H](O)C[C@H]1C(N)=O)[C@@H](C)O)C(C)C)[C@@H](C)O)N(C)C(=O)[C@H](C)NC(=O)CN(C)C(=O)[C@H](Cc1ccccc1)NC(=O)[C@H](CO)NC(=O)[C@H](CO)NC(=O)[C@H](CCCNC(=N)N)NC(=O)[C@H](CCC(N)=O)NC(=O)[C@H](CC(C)C)NC(=O)[C@H](Cc1ccccc1)NC(=O)[C@H](Cc1c[nH]cn1)NC(=O)[C@H](C)NC(=O)[C@H](CC(C)C)NC(=O)[C@H](CCCNC(=N)N)NC(=O)[C@H](CC(=O)O)NC(=O)[C@@H](NC(=O)[C@H](C)NC(=O)[C@@H]1CSSC[C@H](NC(=O)[C@H](CCCNC(=N)N)NC(=O)CC[C@H](NC(=O)CCCCCCCCCCCCCCCCCCC(=O)O)C(=O)O)C(=O)N[C@@H](CCC(N)=O)C(=O)N[C@@H]([C@@H](C)O)C(=O)N[C@@H](C)C(=O)N[C@@H]([C@@H](C)O)C(=O)N1)[C@@H](C)O [Compound 88, [19CD]-isoGlu-R-C( )-QTAT-C( )-ATDRLAHFLQRSSF-Gly(Me)-A-Ile(Me)-LSSTEVGSNT-Hyp-NH2] ({C20 diacid-γGlu}-RCQTATCATDRLAHFLQRSSF[Sar]A[NMeI]LSSTEVGSNT[Hyp]-NH2; disulfide 2-7) |  | FND | FND | FND | A (A = >90%) | A (A = >90%) | A (A = >90%) | A (A = >90%) | 0.06
3 | CC[C@H](C)[C@@H](C(=O)N[C@@H](CC(C)C)C(=O)N[C@@H](CO)C(=O)N[C@@H](CO)C(=O)N[C@H](C(=O)N[C@@H](CCC(=O)O)C(=O)N[C@H](C(=O)NCC(=O)N[C@@H](CO)C(=O)NCC(=O)N[C@H](C(=O)N1C[C@H](O)C[C@H]1C(N)=O)[C@@H](C)O)C(C)C)[C@@H](C)O)N(C)C(=O)[C@H](C)NC(=O)CN(C)C(=O)[C@H](Cc1ccccc1)NC(=O)[C@H](CO)NC(=O)[C@H](CO)NC(=O)[C@H](CCCNC(=N)N)NC(=O)[C@H](CCC(N)=O)NC(=O)[C@H](CC(C)C)NC(=O)[C@H](Cc1ccccc1)NC(=O)[C@H](Cc1c[nH]cn1)NC(=O)[C@H](C)NC(=O)[C@H](CC(C)C)NC(=O)[C@H](CCCNC(=N)N)NC(=O)[C@H](CCC(=O)O)NC(=O)[C@@H](NC(=O)[C@H](C)NC(=O)[C@@H]1CSSC[C@H](NC(=O)[C@H](CCCNC(=N)N)NC(=O)CC[C@H](NC(=O)CCCCCCCCCCCCCCCCCCC(=O)O)C(=O)O)C(=O)N[C@@H](CCC(N)=O)C(=O)N[C@@H]([C@@H](C)O)C(=O)N[C@@H](C)C(=O)N[C@@H]([C@@H](C)O)C(=O)N1)[C@@H](C)O [Compound 90, [19CD]-isoGlu-R-C( )-QTAT-C( )-ATERLAHFLQRSSF-Gly(Me)-A-Ile(Me)-LSSTEVGSGT-Hyp-NH2] ({C20 diacid-γGlu}-RCQTATCATERLAHFLQRSSF[Sar]A[NMeI]LSSTEVGSGT[Hyp]-NH2; disulfide 2-7) |  | FND | FND | FND | A (A = >90%) | A (A = >90%) | A (A = >90%) | A (A = >90%) | 0.2
